Experimental data as given in patent US20060276390A1, “Combined treatments comprising synthetic peptide copolymers for preventing graft rejection” (YEDA RESEARCH AND DEVELOPMENT CO. LTD., priority 2003, published 2006).
Values joined by “and” are separate entries in the source; they are usually repeats but may differ in a detail not shown here. Equal entries are not always repeated. “Also recorded” adds a separate entry of the source. Where two headings read alike, the source gives them in different places.

Key:
[1] = system: BALB/c recipient mice transplanted with skin grafts from B10.D2 donors; assay: Skin graft rejection, B10.D2→BALB/c model; assay type: in vivo, mouse
Experimental: (§1) Mice were kept in separate cages and inspected daily.
(§2) The transplanted mice or rats were treated daily with Copolymer 1 at doses of 0.6-2.5 mg/day for mice and 25 mg/day for rats in PBS solution, starting 7 or 14 days before transplantation. In some cases, the first Cop 1 treatment was injected sc in ICFA as a depot dose.
To test the effect of Copolymer 1 treatment on skin graft rejection in the B10.D2→BALB/c model, BALB/c recipient mice were transplanted with skin grafts from B10.D2 donors and were treated daily with: PBS ip from day −7, Copolymer 1 (ip+sc) from day −7. Grafts were inspected daily.
Grafts were inspected daily. […] Thyroid glands from B10.D2 donors were transplanted in the kidney's capsules of BALB/c mice.

B10PL→PL/J thyroid graft = assay: Thyroid rejection (I125 absorbance), B10PL→PL/J; assay type: in vivo, mouse; details: Cop 1
Experimental: (§3) In this transplantation model for HVG, thyroid glands from donor mice were transplanted in the kidney's capsules of recipient mice. One week later the transplanted mice were injected with ^125I, and the radioactivity of each kidney (the recipient or the untransplanted kidney) was measured after 20 hours. Δcpm was calculated by subtracting the ^125I absorbance of the untransplanted kidneys from the ^125I absorbance of the recipient kidneys in the same treatment. The mean function index (MFI) for treatment was calculated by dividing the mean Δcpm for the tested treatment by the mean Δcpm for the PBS treatment. P values were obtained by the ANOVA test. This assay indicates objectively and quantitatively not only the graft survival, but also the function (iodine absorbance) of the transplanted thyroid tissue (Isakov et al., 1979).
as §2

[2] = system: Lewis rats transplanted with an accessory heart from allogeneic disparate BN donor rats; assay type: in vivo
From the text: Lewis rats were transplanted with an accessory heart from the allogeneic disparate BN donor rats. […] Combination of pretreatment with GA and the respective doses of the immunosuppressants (open bars); Treatment with GA administered from the day of transplantation without pretreatment (striped bar). Cardiac allograft survival was inspected by daily monitoring palpation of the grafts. Grafts were considered rejected when no heart palpitations could be observed.

B10PL→PL/J skin graft = assay: Skin graft rejection, B10PL→PL/J (H-2u); assay type: in vivo, mouse; details: Cop 1
Experimental: as §1, §2

C57BL→C3HSW skin graft = assay: Skin graft rejection, C57BL→C3HSW (H-2b); assay type: in vivo, mouse; details: Cop 1
Experimental: as §1, §2

[3] = system: BALB/c recipient mice transplanted with skin grafts from C57BL donors; details: for prolongation of skin graft survival / mean survival time (MST) of skin graft: FIG. 3 experiment
Experimental: BALB/c mice were transplanted with skin grafts from C57BL/6 donors. […] Grafts were considered rejected when no viable donor epidermis remained. At least 7 mice were tested in each group.
Skin transplantation is an established model to measure immune rejection. In this model recipient and donor mice were anesthetized, shaved and cleaned. Circular pieces of skin (1.0 to 1.3 cm in diameter) were cut from dorsal side of the donor mice and dorsally transplanted to recipient animals by the use of histoacryl (Braun, Melsungen, Germany). The grafts were covered with Nobecutane antiseptic spray bandage (Astra, Wedel, Germany). Mice were kept in separate cages and inspected daily. Grafts were considered rejected when no viable donor epidermis remained.
Three murine strain combinations: B10.D2→BALB/c in the H-2^d haplotype, C57BL→C3HSW in the H-2^b haplotype, and B10PL→PL/J in the H-2^u haplotype, were tested across minor histocompatibility barriers, and across major histocompatibility barriers transplantation was tested in C57BL→BALB/c in the H-2^b→H-2^d haplotype. These strain combinations were tested with Copolymer 1 both using skin and thyroid transplantations.
BALB/c recipient mice were transplanted with skin grafts originated in C57BL donors in day 0. GA (100 mg/kg, s.c.) was injected daily starting 2 weeks before transplantation. […] Rejection was considered positive when no viable donor epidermis remained.

[4] = system: thyroid glands from B10.D2 donors transplanted in the kidney's capsules of BALB/c mice; assay: Function of transplanted thyroids (I125 absorbance), B10.D2→BALB/c model; assay type: in vivo, mouse; details: for MFI (mean function index): fold over PBS
Experimental: as §3, §2
To test the effect of Copolymer 1 treatment on the function of transplanted thyroids in the B10.D2→BALB/c model, thyroid glands from donors B10.D2 were transplanted in the kidney's capsules of BALB/c mice. After one week the transplanted mice were injected with I^125, and the radioactivity of each kidney was measured 20 hours later. A cpm was calculated by subtracting the I^125 absorbance of the untransplanted kidneys from the I^125 absorbance of the recipient kidneys in the same treatment. The mean function index (MFI) for each treatment was calculated by dividing the mean I^125 absorbance of (transplanted kidney—untransplanted kidney) in the tested treatment by the mean I^125 absorbance of (transplanted kidney—untransplanted kidney) in the PBS treatment, as follows: [formula]

C57BL→C3H thyroid graft = assay: Thyroid rejection (I125 absorbance), C57BL→C3H (H-2b); assay type: in vivo, mouse; details: Cop 1
Experimental: as §3, §2

[5] = system: thyroid glands from C57BL mice transplanted in the kidney capsule of BALB/c mice; assay: Function of transplanted thyroids (I125 absorbance), C57BL→BALB/c model; assay type: in vivo, mouse
Experimental: as §3
BALB/c recipient mice were transplanted in the kidney's capsules with thyroid glands from donor mice in day 0. Grafts were inspected daily. The function (iodine absorbance) of the transplanted thyroid tissue was examined 10 days after transplantation by measuring the iodine absorbance in the kidney.
Thyroid glands from C57BL mice were transplanted in the kidney capsule of BALB/c mice. Nine days after transplantation, mice were injected with 1 μcI^125, and the radioactivity of each kidney was measured 20 hr. later. MFI—denotes the mean function index, calculated as
MFI=mean Δcpm for the tested treatment/mean Δcpm for the PBS tested treatment

[6] = Cop 1 600 μg/day ip from day −7
[7] = Cop 1, another experiment (N=5)
[8] = Cop 1 2.5 mg/mouse, Table 7 Part 1
[9] = Cop 1 2.5 mg/mouse, Table 7 Part 2
[10] = Cop 1, C57BL → BALB (H-2b → H-2d), Table 5
[11] = FK 506 300 μg/day ip, 7 times from day −2

glatiramer acetate [Cop 1]
MST (Mean Survival Time) of skin graft ([1]; Cop 1 300 μg/day ip+sc daily from day −7): 20.4 ± 4.5 days | MST (Mean Survival Time) of skin graft ([1]; Cop 1 300 μg/day ip+sc daily from day −7, listed as Copolymer 1): 20.4 days | MST (Mean Survival Time) of skin graft ([1]; Cop 1 600 μg/day ip+sc daily from day −7): 20.6 days and 20.6 ± 3.3 days | MST (Mean Survival Time) of skin graft ([1]; Cop 1 600 μg/day ip+sc daily from day −7, listed as Copolymer 1): 20.6 days | MFI (mean function index) (B10PL→PL/J thyroid graft): 2.5 | Mean I^125 Absorption, Transplanted Kidney (B10PL→PL/J thyroid graft): 2009 cpm | Δcpm (B10PL→PL/J thyroid graft): 1677 cpm | Prolongation ([2]; GA 100 mg/kg alone, vs untreated control): 0.4 days | MST (Mean Graft Survival Time) of heart graft ([2]; GA 100 mg/kg daily from 2 weeks before transplantation, alone): 7.6 ± 0.5 days | effect on heart graft survival ([2]; GA treatment by itself): did not prolong graft survival | MST (Mean Survival Time) of skin graft (B10PL→PL/J skin graft): 17.6 ± 5.1 | MST (Mean Survival Time) of skin graft (C57BL→C3HSW skin graft): 17.7 ± 2.1 | MST (Mean Survival Time) of skin graft ([3]; Cop 1, listed as printed C57BL→C3HSW (H-2b → H-2d)): 18.5 ± 3.3 | prolongation of skin graft survival ([3]; GA 100 mg/kg): 27% | mean survival time (MST) of skin graft ([3]; GA 100 mg/kg, untreated control 8.5 days): 10.8 days | Prolongation ([3]; GA 100 mg/kg alone, Table 6A): 10% | MST (Mean Graft Survival Time) ([3]; GA 100 mg/kg alone, Table 6B): 11.5 days | Prolongation ([3]; GA 100 mg/kg alone, Table 6B): 11% | appearance of mice ([3]; GA 100 mg/kg injected daily): looked completely healthy | MST (Mean Graft Survival Time) ([3]; GA 100 mg/kg s.c. daily from 2 weeks before transplantation, alone, Table 6A): 12.3 days | Mean I^125 Absorption, Transplanted Kidney [4, 6]: 2901 cpm | Δcpm (transplanted minus untransplanted kidney) [4, 6]: 2451 cpm | MFI (mean function index) ([4]; Cop 1 600 ug/day, another experiment (N=5)): 5.2 | MFI (mean function index) ([4]; Cop 1 600 μg/day): 3.2 | Mean I^125 Absorption, Transplanted Kidney [4, 7]: 1035 cpm | Δcpm [4, 7]: 898 cpm | MFI (mean function index) (C57BL→C3H thyroid graft): 2.3 | Mean I^125 Absorption, Transplanted Kidney (C57BL→C3H thyroid graft): 1643 cpm | Δcpm (C57BL→C3H thyroid graft): 1362 cpm | MFI [5, 8]: 3.5 | Mean I^125 Absorbance, Transplanted kidney [5, 8]: 439 ± 31 cpm | Δcpm [5, 8]: 122 cpm | MFI [5, 9]: 2.4 | Mean I^125 Absorbance, Transplanted kidney [5, 9]: 671 ± 24 cpm | Δcpm [5, 9]: 247 cpm | MFI (mean function index) [5, 10]: 3.0 | Mean I^125 Absorption, Transplanted Kidney [5, 10]: 10759 cpm | Δcpm [5, 10]: 9835 cpm

C=CC[C@@H]1/C=C(\C)C[C@H](C)C[C@H](OC)[C@H]2O[C@@](O)(C(=O)C(=O)N3CCCC[C@H]3C(=O)O[C@H](/C(C)=C/[C@@H]3CC[C@@H](O)[C@H](OC)C3)[C@H](C)[C@@H](O)CC1=O)[C@H](C)C[C@@H]2OC [FK 506, tacrolimus]
MST (Mean Survival Time) of skin graft ([1]; FK506 300 μg/day ip, 7 injections from day −2): 21.2 days | MST (Mean Survival Time) of skin graft ([1]; FK506 300 μg/day ip, 7 injections from day −2, listed as FK506): 21.2 ± 4.3 days | Prolongation ([2]; FK 506 1.25 mg/kg alone): 15.3 days | MST (Mean Graft Survival Time) of heart graft ([2]; FK 506 1.25 mg/kg daily from 6 days before transplantation, alone, 1.25 mg/kg): 22.5 days and 22.5 ± 0.9 days | Prolongation ([2]; FK 506 2.5 mg/kg alone): 18.3 days | MST (Mean Graft Survival Time) of heart graft ([2]; FK 506 2.5 mg/kg alone, 2.5 mg/kg): 25.5 days and 25.5 ± 1.4 days | toxicity in rats ([2]; FK 506 2.5 mg/kg, 2.5 mg/kg): toxic consequences | death of rats after number of daily injections ([2]; FK506 5 mg/kg): 6-8 daily injections | toxicity in rats ([2]; FK 506 5.0 mg/kg, 5 mg/kg): toxic consequences; also recorded: toxic all rats died | mean survival time (MST) of skin graft ([3]; FK 506 5 mg/kg): 9.5 days | prolongation of skin graft survival ([3]; FK 506 5 mg/kg): 12% | mean survival time (MST) of skin graft ([3]; FK 506 10 mg/kg): 13.8 days | prolongation of skin graft survival ([3]; FK 506 10 mg/kg): 88% | Prolongation ([3]; FK 506 1.25 mg/kg alone): 8% | MST (Mean Graft Survival Time) ([3]; FK 506 1.25 mg/kg i.m. daily from 6 days before transplantation, alone): 11.2 days | MST (Mean Graft Survival Time) ([3]; FK 506 2.5 mg/kg alone): 11.8 days | Prolongation ([3]; FK 506 2.5 mg/kg alone): 13% | MST (Mean Graft Survival Time) ([3]; FK 506 5.0 mg/kg alone): 12.7 days | Prolongation ([3]; FK 506 5.0 mg/kg alone): 22% | MST (Mean Graft Survival Time) ([3]; FK 506 10 mg/kg alone): 16.0 days | Prolongation ([3]; FK 506 10 mg/kg alone): 54% | mortality ([3]; higher dose, FK 506 10 mg/kg, average): 20 % of the mice | toxic effect on the mice ([3]; mouse, in vivo, 10 mg/kg): considerable weight loss and weakness | Mean I^125 Absorption, Transplanted Kidney [4, 11]: 3117 cpm | Δcpm (transplanted minus untransplanted kidney) [4, 11]: 2424 cpm | MFI (mean function index) ([4]; FK 506 300 μg/day): 3.1 | MFI ([5]; FK506 1.25 mg/kg): 3.1 | Mean I^125 Absorbance, Transplanted kidney ([5]; FK506 1.25 mg/kg): 928 ± 165 cpm | Δcpm ([5]; FK506 1.25 mg/kg): 327 cpm | MFI ([5]; FK506 2.5 mg/kg): 4.1 | Mean I^125 Absorbance, Transplanted kidney ([5]; FK506 2.5 mg/kg): 772 ± 519 cpm | Δcpm ([5]; FK506 2.5 mg/kg): 431 cpm | MFI ([5]; FK506 5 mg/kg): 3.7 | Mean I^125 Absorbance, Transplanted kidney ([5]; FK506 5 mg/kg): 1167 ± 636 cpm | Δcpm ([5]; FK506 5 mg/kg): 383 cpm
